Test results as given in patent publication US7781483B2, “Benzopyran compound” (Nissan Chemical Industries, Ltd., priority 2004, dated 2010).
Structures can show the parent of a compound that is named as a salt.

These compounds were tested on Atrium (assay: Effects on the effective refractory period (S1-S2 extrastimulus technique, anesthetized beagles under vagal nerve stimulation)). Settings: 0.3 mg/kg intravenously, determined from 5 min after administration, bilateral vagal nerve stimulation, basic cycle length 300 msec, [after]-[before] drug administration.
Type: in vivo
Procedure: Beagles were anesthetized with pentobarbital sodium and thoracotomy was done along the median line under a respirator and the incision was made on the pericardium to expose the heart. An electrocardiogram (ECG) was recorded using bipolar electrodes attached to the surface of the right atrial free wall, right atrial auricle, and right ventricular free wall. The vagal nerves were stimulated using an electrostimulation device with Nichrome wires inserted into the vagal nerves in the neck bilaterally. The conditions for electrostimulation to the vagal nerves were set such that the RR intervals on ECG were prolonged by about 100 msec compared with those before the stimulation was started.
Atrial and ventricular effective refractory periods were determined by S1-S2 extrastimulus technique at basic cycle length of 300 msec during bilateral vagal nerve stimulation, using programmable electric stimulator. A train of 10 basic stimuli (S1) was followed by a premature extrastimulus (S2) at 2 times diastolic threshold.
For evaluation of drug effects, the atrial and ventricular effective refractory periods were determined before drug administration, then respective compound was administrated intravenously at the dose of 0.3 mg/kg, and the atrial and ventricular effective refractory periods were determined from 5 min after the administration.
The results were shown as the prolongation time on the atrial and ventricular effective refractory periods, i.e. [effective refractory period after drug administration]−[effective refractory period before drug administration] (msec).

SMILES	Prolongation time on the effective refractory period (msec) Atrium
Br.CC1(C)Oc2cc(NS(C)(=O)=O)c(O)cc2[C@H](NCCc2ccccc2)[C@H]1O (relative stereo) [Synthesis Example 2, N-{(3R*,4S*)-3,6-Dihydroxy-2,2-dimethyl-4-[(2-phenylethyl)amino]-3,4-dihydro-2H-1-benzopyran-7-yl}methanesulfonamide]	26 ms
COc1cc2c(cc1NS(C)(=O)=O)OC(C)(C)[C@H](O)[C@H]2NCCC1CCCCC1 (relative stereo) [Synthesis Example 4, N-{(3R*,4S*)-4-[(2-Cyclohexylethyl)amino]-3-hydroxy-6-methoxy-2,2-dimethyl-3,4-dihydro-2H-1-benzopyran-7-yl}methanesulfonamide]	26 ms
COc1cc2c(cc1NS(C)(=O)=O)OC(C)(C)[C@H](O)[C@H]2NCCc1ccccc1 (relative stereo) [Synthesis Example 1, N-{(3R*,4S*)-3-Hydroxy-6-methoxy-2,2-dimethyl-4-[(2-phenylethyl)amino]-3,4-dihydro-2H-1-benzopyran-7-yl}methanesulfonamide]	24 ms
CC1(C)Oc2cc(NS(C)(=O)=O)ccc2[C@H](NCCc2ccccc2)[C@H]1O (relative stereo) [Synthesis Example 7, N-{(3R*,4S*)-3-Hydroxy-2,2-dimethyl-4-[(2-phenylethyl)amino]-3,4-dihydro-2H-1-benzopyran-7-yl}methanesulfonamide maleate]	32 ms
COc1cc2c(cc1N(C)S(C)(=O)=O)OC(C)(C)[C@H](O)[C@H]2NCCc1ccccc1 (relative stereo) [Synthesis Example 3, N-{(3R*,4S*)-3-Hydroxy-6-methoxy-2,2-dimethyl-4-[(2-phenylethyl)amino]-3,4-dihydro-2H-1-benzopyran-7-yl}-N-methylmethanesulfonamide]	20 ms
CN(c1ccc2c(c1)OC(C)(C)[C@H](O)[C@H]2NCCc1ccccc1)S(C)(=O)=O (relative stereo) [Synthesis Example 12, N-{(3R*,4S*)-3-hydroxy-2,2-dimethyl-4-[(2-phenylethyl)amino]-3,4-dihydro-2H-benzopyran-7-yl}-N-methylmethanesulfonamide hydrochloride]	28 ms
